# Measurements as given in ChEMBL document CHEMBL5620386, “Synthesis, biological screening and in silico studies of new N-phenyl-4-(1,3-diaryl-1H-pyrazol-4-yl)thiazol-2-amine derivatives as potential antifungal and antitubercular agents” (Eur J Med Chem, 2023).
# “And” between values parts separate entries of the source, which are not always exact repeats. Identical values can stand only once. The source made the active and inactive calls. The calls are words filed in the database; no cut-off is given here.
# What was measured:
# Escherichia coli = experiment: Antimicrobial activity against Escherichia coli NCIM 2574 assessed as zone of inhibition by well diffusion method; format: functional
# Proteus mirabilis [1] = experiment: Antimicrobial activity against Proteus mirabilis NCIM 2388 assessed as zone of inhibition by well diffusion method; format: functional
# Bacillus subtilis = experiment: Antimicrobial activity against Bacillus subtilis NCIM 2063 assessed as zone of inhibition by well diffusion method; format: functional
# Staphylococcus aureus [2] = experiment: Antimicrobial activity against Staphylococcus aureus NCIM 2178 assessed as zone of inhibition by well diffusion method; format: functional
# Candida albicans = experiment: Antifungal activity against Candida albicans NCIM 3100 assessed as zone of inhibition by well diffusion method; format: functional
# Aspergillus niger [3] = experiment: Antifungal activity against Aspergillus niger ATCC 504 assessed as zone of inhibition by well diffusion method; format: functional
# Staphylococcus aureus [4] = experiment: Antimicrobial activity against Staphylococcus aureus NCIM 2178 assessed as absence of growth by well diffusion method; format: functional
# Aspergillus niger [5] = experiment: Antifungal activity against Aspergillus niger ATCC 504 assessed as absence of growth by well diffusion method; format: functional
# [6] = test system: Mycobacterium tuberculosis; experiment: Antitubercular activity Mycobacterium tuberculosis H37Rv strain ATCC No- 27294 assessed as prevention of color change from blue to pink using Almar Blue measured after 24 hrs by MABA assay; format: functional
# [7] = Cytotoxicity against mouse 3T3-L1 cells assessed as cell viability at 12.5 ug/ml measured after 24 hrs by MTT assay relative to control; format: toxicity, cell-based; conditions: at 12.5 µg/mL, read-out: Activity
# [8] = Cytotoxicity against mouse 3T3-L1 cells assessed as cell viability at 25 ug/ml measured after 24 hrs by MTT assay relative to control; format: toxicity, cell-based; conditions: at 25 µg/mL, read-out: Activity
# Proteus mirabilis [9] = experiment: Antimicrobial activity against Proteus mirabilis NCIM 2388 assessed as absence of growth by well diffusion method; format: functional
SMILES,inhibition zone (IZ) (Escherichia coli),inhibition zone (IZ) (Proteus mirabilis [1]) [mm],inhibition zone (IZ) (Bacillus subtilis) [mm],inhibition zone (IZ) (Staphylococcus aureus [2]) [mm],inhibition zone (IZ) (Candida albicans) [mm],inhibition zone (IZ) (Aspergillus niger [3]) [mm],MIC (Staphylococcus aureus [4]),MIC (Aspergillus niger [5]),MIC [6],"viability at 24 h, 12.5 ug/ml [7] [%]","viability at 24 h, 25 ug/ml [8] [%]",MIC (Proteus mirabilis [9]) [µg/mL]
COc1ccc(Nc2nc(-c3cn(-c4ccc(F)cc4)nc3-c3ccc(Cl)cc3)cs2)cc1,inactive,13.2,12.2,15,11.4,18.8,125 µg/mL,15.6 µg/mL and 32.8 µM,1.6 µg/mL and 3.36 µM,72.9,63.1,–
Fc1ccc(-n2cc(-c3csc(Nc4ccccc4)n3)c(-c3ccc(Cl)cc3)n2)cc1,inactive,14.2,13.4,15,11,18.2,125 µg/mL,15.6 µg/mL and 35 µM,1.6 µg/mL and 3.58 µM,69.2,62.6,125
c1ccc(Nc2nc(-c3cn(-c4ccccc4)nc3-c3ccccc3)cs2)cc1,inactive,15,11.2,16,11.2,18.8,62.5 µg/mL and 1590 µM,15.6 µg/mL and 39.6 µM,1.6 µg/mL and 4.06 µM,97.5,90.5,125
Clc1ccc(-c2nn(-c3ccccc3)cc2-c2csc(Nc3ccccc3)n2)cc1,inactive,15.2,12,14,11,17.4,125 µg/mL,31.2 µg/mL and 72.8 µM,25 µg/mL and 58.4 µM,–,–,125
Cc1ccc(Nc2nc(-c3cn(-c4ccccc4)nc3-c3ccccc3)cs2)cc1,inactive,15,12,15,10.4,18.4,125 µg/mL,15.6 µg/mL and 38.3 µM,50 µg/mL and 122 µM,–,–,125
NC(=O)c1cnccn1 [PYRAZINAMIDE],–,–,–,–,–,–,–,–,3.12 µg/mL and 25.4 µM,–,–,–
Clc1ccc(Nc2nc(-c3cn(-c4ccccc4)nc3-c3ccccc3)cs2)cc1,inactive,14.8,12.2,15.8,11.2,19.2,62.5 µg/mL and 146 µM,15.6 µg/mL and 36.5 µM,25 µg/mL and 58.4 µM,–,–,125
Clc1ccc(Nc2nc(-c3cn(-c4ccccc4)nc3-c3ccc(Cl)cc3)cs2)cc1,inactive,14,11.6,14.2,10.4,17.4,125 µg/mL,31.2 µg/mL and 67.5 µM,1.6 µg/mL and 3.46 µM,118,99.2,125
CC[C@@H](CO)NCCN[C@@H](CC)CO [ETHAMBUTOL],–,–,–,–,–,–,–,–,1.6 µg/mL and 7.83 µM,–,–,–
CO[C@H]1/C=C/O[C@@]2(C)Oc3c(C)c(O)c4c(O)c(c(/C=N/N5CCN(C)CC5)c(O)c4c3C2=O)NC(=O)/C(C)=C\C=C\[C@H](C)[C@H](O)[C@@H](C)[C@@H](O)[C@@H](C)[C@H](OC(C)=O)[C@@H]1C [RIFAMPIN],–,–,–,–,–,–,–,–,0.8 µg/mL and 0.972 µM,–,–,–
Fc1ccc(-n2cc(-c3csc(Nc4ccccc4)n3)c(-c3ccccc3)n2)cc1,inactive,13.8,12,15,10,18.6,125 µg/mL,15.6 µg/mL and 37.9 µM,12.5 µg/mL and 30.3 µM,99.5,94.8,–
Fc1ccc(-n2cc(-c3csc(Nc4ccc(Cl)cc4)n3)c(-c3ccccc3)n2)cc1,13 mm,15,13,16,10.8,18.8,62.5 µg/mL and 140 µM,15.6 µg/mL and 35 µM,3.12 µg/mL and 7.01 µM,102,46,125
Cc1ccc(Nc2nc(-c3cn(-c4ccccc4)nc3-c3ccc(C)cc3)cs2)cc1,inactive,15,13.2,13,11.4,18,–,15.6 µg/mL and 37 µM,1.6 µg/mL and 3.79 µM,70.1,–,125
COc1ccc(Nc2nc(-c3cn(-c4ccc(F)cc4)nc3-c3ccccc3)cs2)cc1,inactive,13.8,12.4,15,10.4,19.2,125 µg/mL,15.6 µg/mL and 35.3 µM,3.12 µg/mL and 7.07 µM,98.2,97.2,–
NNC(=O)c1ccncc1 [ISONIAZID],–,–,–,–,–,–,–,–,1.6 µg/mL and 11.7 µM,–,–,–
COc1ccc(Nc2nc(-c3cn(-c4ccccc4)nc3-c3ccccc3)cs2)cc1,inactive,14.2,12.75,15,11.6,20,125 µg/mL,15.6 µg/mL and 36.8 µM,25 µg/mL and 58.9 µM,–,–,125
Fc1ccc(-n2cc(-c3csc(Nc4ccc(Cl)cc4)n3)c(-c3ccc(Cl)cc3)n2)cc1,11 mm,13.6,12.6,15,10.4,19,125 µg/mL,15.6 µg/mL and 32.5 µM,1.6 µg/mL and 3.33 µM,74.4,56.7,–
Cc1ccc(-c2nn(-c3ccccc3)cc2-c2csc(Nc3ccc(Cl)cc3)n2)cc1,inactive,13.8,13.8,16,10,20,62.5 µg/mL and 141 µM,15.6 µg/mL and 35.3 µM,0.8 µg/mL and 1.8 µM,67.5,61.8,–
